Where two headings read alike, the source gives them in different places.
Legend:
Listeria innocua 36 = assay: Colony coloration on fresh and stored media, Example 10 (6-chloro-3-indolyl-β-N-acetylglucosaminide, Columbia); type: cell-based; parameters: key to intensity of coloration (arbitrary scale): 0: no activity; 0.1: trace of coloration; 0.5: very pale coloration; 1: distinct coloration of low intensity; 2: clear coloration of medium intensity; 3: intense coloration; 4: very intense coloration; —: absence of coloration or intensity; key to color: M: magenta; —: colorless
Method: (§1) Two stock solutions of substrate were prepared, one having a concentration of 50 g/l in DMF and the other having a concentration of 50 g/l in a mixture of DMF (40%) and Tween® 20 (60%). A volume corresponding to a final concentration of 175 mg/l of substrate was then added to a supercooled gelled medium, namely Columbia medium not supplemented with blood. […] After three weeks, six weeks, nine weeks and twelve weeks, two media like those described above were prepared for immediate use.
(§2) Microorganisms originating from the Applicant's collection were inoculated from a 0.5 McFarland suspension, by isolation in three quadrants, onto the two media prepared for immediate use and the two media stored at +4° C. The dishes were incubated at 37° C. for 48 hours. The colonies formed were examined visually after 24 and 48 hours of incubation. The coloration of these colonies and the intensity of this coloration were noted.

Listeria ivanovii 18 = assay: as above; type: cell-based; parameters: key to intensity of coloration (arbitrary scale): 0: no activity; 0.1: trace of coloration; 0.5: very pale coloration; 1: distinct coloration of low intensity; 2: clear coloration of medium intensity; 3: intense coloration; 4: very intense coloration; —: absence of coloration or intensity; key to color: M: magenta; —: colorless
Method: as §1, §2

[1] = test system: Listeria monocytogenes 23; assay: as above; type: cell-based; parameters: key to intensity of coloration (arbitrary scale): 0: no activity; 0.1: trace of coloration; 0.5: very pale coloration; 1: distinct coloration of low intensity; 2: clear coloration of medium intensity; 3: intense coloration; 4: very intense coloration; —: absence of coloration or intensity; key to color: M: magenta; —: colorless
Method: as §1, §2

[2] = test system: Pseudomonas aeruginosa 165; assay: as above; type: cell-based; parameters: key: M: magenta; —: colorless
Method: as §1, §2

Staphylococcus aureus 20 = assay: as above; type: cell-based; parameters: key: M: magenta; —: colorless
Method: as §1, §2

[3] = Substrate solubility with different FASE (Example 8); type: physicochemical
Method: Different stock solutions of substrate are prepared in DMSO in the presence of Tween® 20, Tween® 80 (polyethoxylated sorbitan monooleate), Tween® 60 (polyethoxylated sorbitan monostearate) or Tween® 65 (polyethoxylated sorbitan tristearate). A volume corresponding to a final concentration of 500 mg/l of substrate is then added to a supercooled gelled medium, namely MacConkey medium.

[4] = IT 24 h, fresh medium, DMF Tween 20, 6-week comparison
[5] = IT 24 h, fresh medium, DMF Tween 20, 9-week comparison
[6] = IT 24 h, fresh medium, DMF Tween 20, 12-week comparison
[7] = IT 24 h, fresh medium, DMF, 6-week comparison
[8] = IT 24 h, fresh medium, DMF, 9-week comparison
[9] = IT 24 h, fresh medium, DMF, 12-week comparison
[10] = IT 24 h, medium stored for 6 weeks at +4° C., DMF
[11] = IT 24 h, medium stored for 6 weeks at +4° C., DMF Tween 20
[12] = IT 24 h, medium stored for 9 weeks at +4° C., DMF
[13] = IT 24 h, medium stored for 9 weeks at +4° C., DMF Tween 20
[14] = IT 24 h, medium stored for 12 weeks at +4° C., DMF
[15] = IT 24 h, medium stored for 12 weeks at +4° C., DMF Tween 20
[16] = IT 48 h, fresh medium, DMF Tween 20, 6-week comparison
[17] = IT 48 h, fresh medium, DMF Tween 20, 9-week comparison
[18] = IT 48 h, fresh medium, DMF Tween 20, 12-week comparison
[19] = IT 48 h, fresh medium, DMF, 6-week comparison
[20] = IT 48 h, fresh medium, DMF, 9-week comparison
[21] = IT 48 h, fresh medium, DMF, 12-week comparison
[22] = IT 48 h, medium stored for 6 weeks at +4° C., DMF
[23] = IT 48 h, medium stored for 6 weeks at +4° C., DMF Tween 20
[24] = IT 48 h, medium stored for 9 weeks at +4° C., DMF
[25] = IT 48 h, medium stored for 9 weeks at +4° C., DMF Tween 20
[26] = IT 48 h, medium stored for 12 weeks at +4° C., DMF
[27] = IT 48 h, medium stored for 12 weeks at +4° C., DMF Tween 20

CC(=O)N[C@H]1[C@H](Oc2c[nH]c3cc(Cl)ccc23)O[C@H](CO)[C@@H](O)[C@@H]1O
1: intensity of coloration (arbitrary scale) (Listeria innocua 36; [10]) | intensity of coloration (arbitrary scale) (Listeria innocua 36; [15]) | intensity of coloration (arbitrary scale) (Listeria innocua 36; [24]) | intensity of coloration (arbitrary scale) (Listeria ivanovii 18; [13]) | intensity of coloration (arbitrary scale) (Listeria ivanovii 18; [15]) | intensity of coloration (arbitrary scale) [1, 10] | intensity of coloration (arbitrary scale) [1, 13] | intensity of coloration (arbitrary scale) [1, 15]
—: color [2, 4] | color [2, 5] | color [2, 6] | color [2, 7] | color [2, 8] | color [2, 9] | color [2, 10] | color [2, 11] | color [2, 12] | color [2, 13] | color [2, 14] | color [2, 15] | color [2, 16] | color [2, 17] | color [2, 18] | color [2, 19] | color [2, 20] | color [2, 21] | color [2, 22] | color [2, 23] | color [2, 24] | color [2, 25] | color [2, 26] | color [2, 27] | color (Staphylococcus aureus 20; [4]) | color (Staphylococcus aureus 20; [5]) | color (Staphylococcus aureus 20; [6]) | color (Staphylococcus aureus 20; [7]) | color (Staphylococcus aureus 20; [8]) | color (Staphylococcus aureus 20; [9]) | color (Staphylococcus aureus 20; [10]) | color (Staphylococcus aureus 20; [11]) | color (Staphylococcus aureus 20; [12]) | color (Staphylococcus aureus 20; [13]) | color (Staphylococcus aureus 20; [14]) | color (Staphylococcus aureus 20; [15]) | color (Staphylococcus aureus 20; [16]) | color (Staphylococcus aureus 20; [17]) | color (Staphylococcus aureus 20; [18]) | color (Staphylococcus aureus 20; [19]) | color (Staphylococcus aureus 20; [20]) | color (Staphylococcus aureus 20; [21]) | color (Staphylococcus aureus 20; [22]) | color (Staphylococcus aureus 20; [23]) | color (Staphylococcus aureus 20; [24]) | color (Staphylococcus aureus 20; [25]) | color (Staphylococcus aureus 20; [26]) | color (Staphylococcus aureus 20; [27])
0.5: intensity of coloration (arbitrary scale) (Listeria innocua 36; [12]) | intensity of coloration (arbitrary scale) (Listeria innocua 36; [26]) | intensity of coloration (arbitrary scale) (Listeria ivanovii 18; [10]) | intensity of coloration (arbitrary scale) (Listeria ivanovii 18; [24]) | intensity of coloration (arbitrary scale) [1, 12] | intensity of coloration (arbitrary scale) [1, 24]
2.5: intensity of coloration (arbitrary scale) (Listeria innocua 36; [25]) | intensity of coloration (arbitrary scale) (Listeria innocua 36; [27]) | intensity of coloration (arbitrary scale) (Listeria ivanovii 18; [16]) | intensity of coloration (arbitrary scale) (Listeria ivanovii 18; [17]) | intensity of coloration (arbitrary scale) (Listeria ivanovii 18; [18]) | intensity of coloration (arbitrary scale) (Listeria ivanovii 18; [19]) | intensity of coloration (arbitrary scale) (Listeria ivanovii 18; [20]) | intensity of coloration (arbitrary scale) (Listeria ivanovii 18; [21]) | intensity of coloration (arbitrary scale) (Listeria ivanovii 18; [23]) | intensity of coloration (arbitrary scale) (Listeria ivanovii 18; [25])
1.5: intensity of coloration (arbitrary scale) (Listeria innocua 36; [13]) | intensity of coloration (arbitrary scale) (Listeria ivanovii 18; [4]) | intensity of coloration (arbitrary scale) (Listeria ivanovii 18; [5]) | intensity of coloration (arbitrary scale) (Listeria ivanovii 18; [6]) | intensity of coloration (arbitrary scale) (Listeria ivanovii 18; [7]) | intensity of coloration (arbitrary scale) (Listeria ivanovii 18; [8]) | intensity of coloration (arbitrary scale) (Listeria ivanovii 18; [9]) | intensity of coloration (arbitrary scale) (Listeria ivanovii 18; [11])
M: color (Listeria innocua 36; [4]) | color (Listeria innocua 36; [5]) | color (Listeria innocua 36; [6]) | color (Listeria innocua 36; [7]) | color (Listeria innocua 36; [8]) | color (Listeria innocua 36; [9]) | color (Listeria innocua 36; [10]) | color (Listeria innocua 36; [11]) | color (Listeria innocua 36; [12]) | color (Listeria innocua 36; [13]) | color (Listeria innocua 36; [14]) | color (Listeria innocua 36; [15]) | color (Listeria innocua 36; [16]) | color (Listeria innocua 36; [17]) | color (Listeria innocua 36; [18]) | color (Listeria innocua 36; [19]) | color (Listeria innocua 36; [20]) | color (Listeria innocua 36; [21]) | color (Listeria innocua 36; [22]) | color (Listeria innocua 36; [23]) | color (Listeria innocua 36; [24]) | color (Listeria innocua 36; [25]) | color (Listeria innocua 36; [26]) | color (Listeria innocua 36; [27]) | color (Listeria ivanovii 18; [4]) | color (Listeria ivanovii 18; [5]) | color (Listeria ivanovii 18; [6]) | color (Listeria ivanovii 18; [7]) | color (Listeria ivanovii 18; [8]) | color (Listeria ivanovii 18; [9]) | color (Listeria ivanovii 18; [10]) | color (Listeria ivanovii 18; [11]) | color (Listeria ivanovii 18; [12]) | color (Listeria ivanovii 18; [13]) | color (Listeria ivanovii 18; [14]) | color (Listeria ivanovii 18; [15]) | color (Listeria ivanovii 18; [16]) | color (Listeria ivanovii 18; [17]) | color (Listeria ivanovii 18; [18]) | color (Listeria ivanovii 18; [19]) | color (Listeria ivanovii 18; [20]) | color (Listeria ivanovii 18; [21]) | color (Listeria ivanovii 18; [22]) | color (Listeria ivanovii 18; [23]) | color (Listeria ivanovii 18; [24]) | color (Listeria ivanovii 18; [25]) | color (Listeria ivanovii 18; [26]) | color (Listeria ivanovii 18; [27]) | color [1, 4] | color [1, 5] | color [1, 6] | color [1, 7] | color [1, 8] | color [1, 9] | color [1, 10] | color [1, 11] | color [1, 12] | color [1, 13] | color [1, 14] | color [1, 15] | color [1, 16] | color [1, 17] | color [1, 18] | color [1, 19] | color [1, 20] | color [1, 21] | color [1, 22] | color [1, 23] | color [1, 24] | color [1, 25] | color [1, 26] | color [1, 27]
3: intensity of coloration (arbitrary scale) (Listeria innocua 36; [16]) | intensity of coloration (arbitrary scale) (Listeria innocua 36; [17]) | intensity of coloration (arbitrary scale) (Listeria innocua 36; [18]) | intensity of coloration (arbitrary scale) (Listeria innocua 36; [19]) | intensity of coloration (arbitrary scale) (Listeria innocua 36; [20]) | intensity of coloration (arbitrary scale) (Listeria innocua 36; [21]) | intensity of coloration (arbitrary scale) (Listeria innocua 36; [23]) | intensity of coloration (arbitrary scale) [1, 16] | intensity of coloration (arbitrary scale) [1, 17] | intensity of coloration (arbitrary scale) [1, 18] | intensity of coloration (arbitrary scale) [1, 19] | intensity of coloration (arbitrary scale) [1, 20] | intensity of coloration (arbitrary scale) [1, 21] | intensity of coloration (arbitrary scale) [1, 23]
2: intensity of coloration (arbitrary scale) (Listeria innocua 36; [4]) | intensity of coloration (arbitrary scale) (Listeria innocua 36; [5]) | intensity of coloration (arbitrary scale) (Listeria innocua 36; [6]) | intensity of coloration (arbitrary scale) (Listeria innocua 36; [7]) | intensity of coloration (arbitrary scale) (Listeria innocua 36; [8]) | intensity of coloration (arbitrary scale) (Listeria innocua 36; [9]) | intensity of coloration (arbitrary scale) (Listeria innocua 36; [11]) | intensity of coloration (arbitrary scale) (Listeria innocua 36; [22]) | intensity of coloration (arbitrary scale) (Listeria ivanovii 18; [22]) | intensity of coloration (arbitrary scale) (Listeria ivanovii 18; [27]) | intensity of coloration (arbitrary scale) [1, 4] | intensity of coloration (arbitrary scale) [1, 5] | intensity of coloration (arbitrary scale) [1, 6] | intensity of coloration (arbitrary scale) [1, 7] | intensity of coloration (arbitrary scale) [1, 8] | intensity of coloration (arbitrary scale) [1, 9] | intensity of coloration (arbitrary scale) [1, 11] | intensity of coloration (arbitrary scale) [1, 22] | intensity of coloration (arbitrary scale) [1, 25] | intensity of coloration (arbitrary scale) [1, 27]

polyethoxylated sorbitan monolaurate containing 20 units of ethylene oxide (EO) [TWEEN® 20]
good substrate solubility: substrate solubility ([3]; 40% DMSO, 60% Tween)

polyethoxylated sorbitan monooleate (20 EO) [TWEEN® 80]
good substrate solubility: substrate solubility [3]

Reference: patent US20050014215A1, “Method and medium for the detecting/identifying microorganisms with esterase and/or r osidase and/or peptidase and/or sulfatase and/or phosphatase activity” (priority 2000, published 2005)
